Data on 16 compounds can be found in patent US5496849A, “Sulfonic acid derivative and its pharmaceutical application” (Toray Industries, Inc., priority 1992, dated 1996).

Assay [1] relates to vasoconstriction of rat thoracic aorta induced by U-46619. In words: Vasoconstriction inhibitory action (U-46619-induced constriction of thoracic aorta spiral specimens). Set-up: species or system long Evans rats. Conditions: 10 min, pH 7.4, minimum concentration at which inhibition rate was 50% or more, 10 ng/ml U-46619, drug applied 10 minutes, 37° C., read-out: Vasoconstriction Inhibitory Action MIC. As for the experimental part: Male and female long Evans rats having body weights of 150-200 g were used in this example. After sacrificing the animals by decapitation, the thoracic aorta was removed, and the outer membrane was peeled off to obtain I2 spiral specimens roughly 2 cm in length. Blood vessel specimens were warmed to 37° C. and preserved in a Magnus tube containing 10 ml of a nutrient solution aerated with 95% oxygen+5% carbon dioxide gas. The nutrient solution contained 118.3 mmol of NaCl, 4.7 mmol of KCl, […] of CaCl, 1.2 mmol of MgSO4, 1.2 mmol of KH2 PO4, 25 mmol of NaCHO3, 11.1 mmol of D-glucose, 0.03 mmol of EDTA along with 1 μg/ml each of atropin, phentolamine, mepiramine, cyproheptadine, propranolol and indometacin, and was adjusted to a pH of 7.4. Vasoconstriction was measured using an isometric transducer (Harward UF-1 Transducer and Sekonic SS-250F Graph recorder). An equilibration time of 3 hours was provided after the blood vessels were installed on the Magnus device, and fresh nutrient solution was replaced every 30 minutes during that time. […] of U-46619, having TXA2 action (to reach roughly 75% of maximum constriction), was applied for 30 minutes to constrict the vessels. The maximum stable constriction during this time was taken to be the control constriction (C1). Next, the blood vessels were washed several times with nutrient solution to remove the drug. After allowing a recovery period of 30 minutes, the test drugs were applied at various concentrations for 10 minutes followed by again constricting the vessels by applying 10 ng/ml of U-46619 for 30 minutes. The maximum stable constriction during this time was taken to be the constriction of the test drugs (C2). The inhibition rates of vasoconstriction induced by the drugs and U-46619 were determined according to the following formula, and the minimum concentration at which the inhibition rate was 50% or more was determined as the minimum inhibitory concentration (MIC).
((C1-C2)/C1)×100=Inhibition rate (%)

Assay [2] addresses T1, Thromboxane A2 Receptor (Oryctolagus cuniculus, UniProt Q6WQI8).
T1 sequence (Q6WQI8 1-233): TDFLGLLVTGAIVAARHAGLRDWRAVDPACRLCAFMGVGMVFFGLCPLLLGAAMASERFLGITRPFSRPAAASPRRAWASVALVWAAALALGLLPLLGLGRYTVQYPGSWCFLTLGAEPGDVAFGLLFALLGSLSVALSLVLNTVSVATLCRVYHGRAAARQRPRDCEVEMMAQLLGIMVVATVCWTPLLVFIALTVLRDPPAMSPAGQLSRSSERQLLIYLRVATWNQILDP
Nature of the assay: Receptor binding experiment: Thromboxane A2 Receptor Binding Test ([3H]SQ29548, washed platelets). The arrangement: species or system New Zealand White rabbits. Conditions: rabbit washed platelets; [3H]SQ29548 3 nM; 60 minutes at 25° C.; read-out: Binding Inhibitory Action IC50 (converted). As for the experimental part: Whole blood from New Zealand White rabbits was collected into a container containing ACD solution (1.175 g of sodium citrate, 0.685 g of citric acid, and 1 g of dextrose dissolved in 50 ml of distilled water) followed by centrifuging at room temperature for 10 minutes at 180 ×g to obtain platelet-rich plasma. Moreover, this platelet-rich plasma was further centrifuged at room temperature and 2800 ×g to result in sedimentation of the platelets. The platelets were resuspended in 50 mM Tris hydrochloric acid buffer solution (pH 7.2, containing […]) and again centrifuged at 4° C. for 15 minutes at 2800 ×g. This procedure was repeated twice to prepare the washed platelets, and adjusted to a final concentration of 10 mg/ml (wet weight). Tritium-labelled SQ29548 ([3H]SQ29548) was used for the TXA2 ligand. In an antagonism experiment, 20 μl of [3H]SQ29548 at a final concentration of 3 nM were added to 500 μl of a 10 mg/ml platelet suspension, together with adding 2.6 μl of the test drug dissolved in a suitable buffer. After incubating for 60 minutes at 25° C., the mixture was filtered over a glass filter using the Celherbster method, the filter was washed with 50 mM Tris hydrochloric acid buffer solution (3 ×4 ml), and radioactivity was measured with a scintillation counter to determine the amount of [3H]SQ29548 bound to the platelets. In addition, in a saturation test, 20 μl of [3H]SQ29548 were added to a final concentration of 0.1-50 nM followed by the addition of 2.6 μl of BM13505 at a final concentration of 1 μM in order to examine non-specific binding and carry out a binding experiment. The concentration of the test drug which inhibited binding of [3H]SQ29548 by 50% was determined as the IC50 value.

Assay [3] relates to platelet aggregation induced by U-46619 in human platelet-rich plasma (PRP). In words: Platelet aggregation inhibitory action (U-46619-induced, human platelet-rich plasma). Conditions: compounds added 1 minute before U-46619, turbidity. The format is cell-based. As for the experimental part:
Human whole blood drawn from the median cubital vein was centrifuged for 10 minutes at 800 rpm, and the upper portion was collected as platelet-rich plasma (PRP). […] The size of the aggregates were measured with a platelet aggregate measuring instrument (Hematracer 1, Nikko Bioscience) as the change in turbidity. The compounds were added 1 minute before addition of U-46619, and the concentration which inhibits aggregation by 50% was calculated as the IC50 value.

For the compound `O=C(O)c1cccc2c1O[C@H]1C[C@@H](O)[C@H](NS(=O)(=O)c3ccccc3)[C@@H]21` (racemic) [(39), (1RS, 2RS, 3aSR, 8bRS)-1-benzenesulfonamido-2-hydroxy-2,3,3a,8b-tetrahydro-1H-cyclopenta[b]benzofuran-5-carboxylic acid], the minimal effective concentration in assay [1] turned out to be 0.25 µg/mL.
One may read the IC50 as the point on the concentration scale where inhibition reaches its midpoint. As for `O=C(O)Cc1cccc2c1O[C@H]1C[C@@H](O)[C@H](NS(=O)(=O)c3ccccc3)[C@@H]21` (racemic) [(41), (1RS, 2RS, 3aSR, 8bRS)-1-benzenesulfonamido-2-hydroxy-2,3,3a,8b-tetrahydro-1H-cyclopenta[b]benzofuran-5-acetic acid], the values for the IC50 in assay [2] and in assay [3] were 2.08 µM and 1.7 µM, respectively. Besides, in assay [1], the minimal effective concentration stood at 0.25 µg/mL.
On the same counts, the results for `O=C(O)CCc1cccc2c1O[C@H]1C[C@@H](O)[C@H](NS(=O)(=O)c3ccccc3)[C@@H]21` (racemic) [(43), (1RS, 2RS, 3aSR, 8bRS)-1-benzenesulfonamido-2-hydroxy-2,3,3a,8b-tetrahydro-1H-cyclopenta[b]benzofuran-5-propionic acid] are 0.322 µM, 0.51 µM and 0.3 µg/mL.
In the case of `O=C(O)CCCc1cccc2c1O[C@H]1C[C@@H](O)[C@H](NS(=O)(=O)c3ccccc3)[C@@H]21` (racemic) [(45), (1RS, 2RS, 3aSR, 8bRS)-1-benzenesulfonamido-2-hydroxy-2,3,3a,8b-tetrahydro-1H-cyclopenta[b]benzofuran-5-butyric acid], the IC50 was 4.79 µM in assay [2] and 4.3 µM in assay [3].
In the case of `COC(=O)COc1cccc2c1O[C@H]1C[C@@H](O)[C@H](NS(=O)(=O)c3ccccc3)[C@@H]21` (racemic) [(46), (1RS, 2RS, 3aSR, 8bRS)-1-benzenesulfonamido-2-hydroxy-2,3,3a,8b-tetrahydro-1H-cyclopenta[b]benzofuran-5-yloxyacetic acid methyl ester], the IC50 in assay [2] is 0.0231 µM; in assay [3], 0.068 µM. For the same compound, in assay [1], the minimal effective concentration was found to be 0.03 µg/mL.
The like results for `O=C(O)COc1cccc2c1O[C@H]1C[C@@H](O)[C@H](NS(=O)(=O)c3ccccc3)[C@@H]21` (racemic) [(47), (1RS, 2RS, 3aSR, 8bRS)-1-benzenesulfonamido-2-hydroxy-2,3,3a,8b-tetrahydro-1H-cyclopenta[b]benzofuran-5-yloxyacetic acid] were, in that order, 0.0074 µM, 0.018 µM and 0.025 µg/mL.
Regarding `O=C(O)COc1cccc2c1O[C@H]1C[C@@H](O)[C@H](NS(=O)(=O)c3ccc(C(F)(F)F)cc3)[C@@H]21` (racemic) [(65), (1RS, 2RS, 3aSR, 8bRS)-1-(p-trifluoromethylbenzenesulfonamido)-2-hydroxy-2,3,3a,8b-tetrahydro-1H-cyclopenta [b]benzofuran-5-yloxyacetic acid], the IC50 is 0.0972 µM in assay [2] and 0.27 µM in assay [3].
The like results for `O=C(O)COc1cccc2c1O[C@H]1C[C@@H](O)[C@H](NS(=O)(=O)Cc3ccccc3)[C@@H]21` (racemic) [(74), (1RS, 2RS, 3aSR, 8bRS)-1-phenylmethanesulfonamido-2-hydroxy-2,3,3a,8b-tetrahydro-1H-cyclopenta[b]benzofuran-5-yloxyacetic acid] were, in that order, 0.858 µM and 5.3 µM.
On the same counts, the results for `O=C(O)COc1cccc2c1O[C@H]1C[C@@H](O)[C@H](NS(=O)(=O)CCc3ccccc3)[C@@H]21` (racemic) [(76), (1RS, 2RS, 3aSR, 8bRS)-1-(2-phenylethanesulfonamido)-2-hydroxy-2,3,3a,8b-tetrahydro-1H-cyclopenta[b]benzofuran-5-yloxyacetic acid] are 0.122 µM and 0.55 µM.
On the same counts, the results for `O=C(O)COc1cccc2c1O[C@H]1C[C@@H](O)[C@H](NS(=O)(=O)c3ccc4ccccc4c3)[C@@H]21` (racemic) [(78), (1RS, 2RS, 3aSR, 8bRS)-1-(2-naphthalenesulfonamido)-2-hydroxy-2,3,3a,8b-tetrahydro-1H-cyclopenta[b]benzofuran-5-yloxyacetic acid] are 0.00209 µM and 0.051 µM.
As to `CCCCS(=O)(=O)N[C@@H]1[C@H]2c3cccc(OCC(=O)O)c3O[C@H]2C[C@H]1O` (racemic) [(82), (1RS, 2RS, 3aSR, 8bRS)-1-butanesulfonamido-2-hydroxy-2,3,3a,8b-tetrahydro-1H-cyclopenta[b]benzofuran-5-yloxyacetic acid], the IC50 in assay [2] is 1.22 µM; in assay [3], 1 µM.
On the same counts, the results for `CCCCCCCCS(=O)(=O)N[C@@H]1[C@H]2c3cccc(OCC(=O)O)c3O[C@H]2C[C@H]1O` (racemic) [(84), (1RS, 2RS, 3aSR, 8bRS)-1-octanesulfonamido-2-hydroxy-2,3,3a,8b-tetrahydro-1H-cyclopenta[b]benzofuran-5-yloxyacetic acid] are 1.22 µM and 7.3 µM.
Turning to `COC(=O)COc1cccc2c1O[C@H]1C[C@@H](O)[C@H](CNS(=O)(=O)c3ccccc3)[C@@H]21` (racemic) [(96), (1SR, 2RS, 3aSR, 8bSR)-1-((benzenesulfonamido)methyl)-2-hydroxy-2,3,3a,8b-tetrahydro-1H-cyclopenta[b]benzofuran-5-yloxyacetic acid methyl ester], the 50% inhibitory concentration (IC50) in assay [2] is 0.415 µM; in assay [3] it was 0.67 µM.
In the case of `Cc1ccc(S(=O)(=O)O[C@H]2CC[C@@H]3Oc4c(OCC(=O)O)cccc4[C@@H]32)cc1` (racemic) [(123), (1SR, 3aSR, 8bSR)-1-((p-tolyl)sulfonyloxy)-2,3,3a,8b-tetrahydro-1H-cyclopenta[b]benzofuran-5-yloxyacetic acid], in assay [3], half-maximal inhibition (IC50) required 0.093 µM.
Still for that read-out and setting: as for `O=C(O)COc1cccc2c1O[C@H]1CC[C@H](OS(=O)(=O)c3ccc(Cl)cc3)[C@@H]21` (racemic) [(125), (1SR, 3aSR, 8bSR)-1-((p-chlorophenyl)sulfonyloxy)-2,3,3a,8b-tetrahydro-1H-cyclopenta[b]benzofuran-5-yloxyacetic acid], the figure is 0.094 µM; as for `O=C(O)COc1cccc2c1O[C@H]1CC[C@H](OS(=O)(=O)c3ccc(F)cc3)[C@@H]21` (racemic) [(127), (1SR, 3aSR, 8bSR)-1-((p-fluorophenyl)sulfonyloxy)-2,3,3a,8b-tetrahydro-1H-cyclopenta[b]benzofuran-5-yloxyacetic acid], 0.1 µM.
